Experimental data as given in US12570671B2 (BRISTOL-MYERS SQUIBB COMPANY, priority 2020, dated 2026).

Tests used:
Ikaros = Ikaros (Homo sapiens, UniProt Q13422+Q96SW2); test: Helios Cellular Degradation Assay (Ikaros readout); format: cell-based; parameters: endogenous in cells; host or cells: Jurkat; conditions: Jurkat cells, 72 h incubation, Ikaros-Alexa488 antibody staining, flow cytometry; read-out: Ikaros Jurkat IC50
Procedure: (§1) Jurkat cells were plated at 80,000 cells/well in 40 μL RPMI+10% FBS in a 384 well cell culture plate prior to using acoustic dispensing technology for adding compound of interest. Cell cultures were incubated for 72 h at 37° C. and 5% C02. In order to facilitate analysis, cell cultures were spun down at 200 rpm for 5 min and the supernatant was discarded. After shaking the plate to dislodge the cell pellet, cells were resuspended in 50 μL of Fixation Buffer (eBioScience FoxP3 buffer set 00-5523-00) for 60 min at room temperature. After centrifuging and discarding the supernatant, cells were permeabilized with 50 μL of Permeabilization buffer (eBioScience FoxP3 buffer set 00-5523-00) for 10 min at room temperature. Following permeabilization, cells were spun down and the supernatant was replaced with 20 μL fluorescently labelled antibodies against Helios, Ikaros and Aiolos or corresponding Isotype controls in 1× Permeabilization buffer (Ikaros-Alexa488 [Biolegend, Cat #368408, 1:50], Helios-PE [CST, Cat #29360, 1:50], Aiolos-Alexa647 [Biolegend, Cat #371106Biolegend, 1:25]) and staining reactions were incubated for 1 h at room temperature; protected from light. Subsequently, 30 μL of 1× Permeabilization buffer was added prior to centrifuging the cells and discarding the supernatant. Stained cells were resuspended in 25 μL of flow cytometry staining buffer (PBS+0.2% BSA) and analyzed using an Intellicyt Ique Plus flow cytometer.

Helios = Helios (Homo sapiens, UniProt Q96SW2+Q9UKS7); test: Helios Cellular Degradation Assay (Helios readout); format: cell-based; parameters: endogenous in cells; host or cells: Jurkat; conditions: Jurkat cells, 72 h incubation, Helios-PE antibody staining, flow cytometry; read-out: Helios Jurkat IC50
Procedure: as §1

Ikaros, sequence (Q13422 whole entry): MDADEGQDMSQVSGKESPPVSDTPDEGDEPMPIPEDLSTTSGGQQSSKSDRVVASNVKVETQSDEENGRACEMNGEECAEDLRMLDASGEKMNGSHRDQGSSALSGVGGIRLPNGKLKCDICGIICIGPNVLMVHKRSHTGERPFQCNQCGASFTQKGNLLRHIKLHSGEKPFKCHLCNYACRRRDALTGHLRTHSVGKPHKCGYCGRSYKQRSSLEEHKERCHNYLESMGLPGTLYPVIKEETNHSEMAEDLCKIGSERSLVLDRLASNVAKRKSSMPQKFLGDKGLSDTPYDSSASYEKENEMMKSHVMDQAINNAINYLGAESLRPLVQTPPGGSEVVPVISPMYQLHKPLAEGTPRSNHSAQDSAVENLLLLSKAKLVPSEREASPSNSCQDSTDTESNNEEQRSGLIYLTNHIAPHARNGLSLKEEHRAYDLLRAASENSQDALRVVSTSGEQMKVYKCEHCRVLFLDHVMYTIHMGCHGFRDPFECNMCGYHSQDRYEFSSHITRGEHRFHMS
Ikaros, sequence (Q96SW2 whole entry): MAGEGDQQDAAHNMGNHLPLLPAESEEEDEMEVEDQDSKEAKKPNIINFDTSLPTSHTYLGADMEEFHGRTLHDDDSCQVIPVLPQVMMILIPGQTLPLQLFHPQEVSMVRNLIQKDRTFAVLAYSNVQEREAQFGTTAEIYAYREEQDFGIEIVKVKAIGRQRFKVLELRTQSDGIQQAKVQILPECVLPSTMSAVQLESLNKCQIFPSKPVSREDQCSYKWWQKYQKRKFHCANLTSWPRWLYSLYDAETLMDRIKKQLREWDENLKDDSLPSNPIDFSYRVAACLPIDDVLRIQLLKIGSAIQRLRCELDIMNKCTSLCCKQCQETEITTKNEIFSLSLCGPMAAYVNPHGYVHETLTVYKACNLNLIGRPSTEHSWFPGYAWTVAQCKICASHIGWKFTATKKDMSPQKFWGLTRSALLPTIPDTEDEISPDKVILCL
Ikaros, sequence (Q16531 whole entry partner): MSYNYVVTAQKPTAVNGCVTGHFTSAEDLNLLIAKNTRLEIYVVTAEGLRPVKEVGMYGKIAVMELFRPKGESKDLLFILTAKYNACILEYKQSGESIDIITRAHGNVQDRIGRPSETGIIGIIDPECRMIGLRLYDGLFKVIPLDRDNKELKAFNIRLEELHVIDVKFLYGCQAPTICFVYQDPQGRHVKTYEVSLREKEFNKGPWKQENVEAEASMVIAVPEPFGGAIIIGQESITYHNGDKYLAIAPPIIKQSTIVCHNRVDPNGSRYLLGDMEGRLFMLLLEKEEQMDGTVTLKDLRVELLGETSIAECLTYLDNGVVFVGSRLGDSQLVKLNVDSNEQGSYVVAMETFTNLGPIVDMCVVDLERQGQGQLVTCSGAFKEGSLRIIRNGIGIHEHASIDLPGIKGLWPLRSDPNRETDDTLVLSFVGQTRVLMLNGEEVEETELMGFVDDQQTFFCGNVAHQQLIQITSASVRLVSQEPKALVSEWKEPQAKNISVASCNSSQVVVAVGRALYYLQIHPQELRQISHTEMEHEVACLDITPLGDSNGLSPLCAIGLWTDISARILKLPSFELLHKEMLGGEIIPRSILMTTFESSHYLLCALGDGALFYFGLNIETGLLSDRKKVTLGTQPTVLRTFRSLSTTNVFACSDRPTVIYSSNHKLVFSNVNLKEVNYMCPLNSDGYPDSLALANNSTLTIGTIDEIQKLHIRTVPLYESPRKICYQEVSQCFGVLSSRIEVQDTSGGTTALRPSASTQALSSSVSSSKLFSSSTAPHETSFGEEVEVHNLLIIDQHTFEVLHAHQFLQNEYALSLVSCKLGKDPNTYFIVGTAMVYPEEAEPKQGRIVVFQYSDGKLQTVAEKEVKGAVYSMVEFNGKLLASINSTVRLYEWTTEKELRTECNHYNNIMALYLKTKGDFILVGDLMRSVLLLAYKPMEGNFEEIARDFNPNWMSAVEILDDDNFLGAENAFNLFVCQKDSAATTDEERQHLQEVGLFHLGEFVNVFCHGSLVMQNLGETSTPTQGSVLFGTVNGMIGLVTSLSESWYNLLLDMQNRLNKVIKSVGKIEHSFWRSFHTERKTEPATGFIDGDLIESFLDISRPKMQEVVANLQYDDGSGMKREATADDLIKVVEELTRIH
Helios, sequence (Q9UKS7 whole entry): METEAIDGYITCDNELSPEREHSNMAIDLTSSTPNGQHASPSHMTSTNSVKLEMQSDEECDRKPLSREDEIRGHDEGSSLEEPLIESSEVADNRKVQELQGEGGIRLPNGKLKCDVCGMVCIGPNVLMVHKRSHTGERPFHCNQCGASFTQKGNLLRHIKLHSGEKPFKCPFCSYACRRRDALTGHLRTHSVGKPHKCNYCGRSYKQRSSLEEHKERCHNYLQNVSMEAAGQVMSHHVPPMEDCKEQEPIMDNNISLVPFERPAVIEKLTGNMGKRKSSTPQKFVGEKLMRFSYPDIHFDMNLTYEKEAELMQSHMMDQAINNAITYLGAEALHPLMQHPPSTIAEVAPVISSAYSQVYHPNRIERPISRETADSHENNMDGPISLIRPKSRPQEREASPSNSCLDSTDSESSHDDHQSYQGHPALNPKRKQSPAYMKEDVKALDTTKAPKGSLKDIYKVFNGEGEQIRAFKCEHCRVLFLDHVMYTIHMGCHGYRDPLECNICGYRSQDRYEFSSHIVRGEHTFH
Helios, sequence (Q96SW2 whole entry): as the sequence (Q96SW2 whole entry) above
Helios, sequence (Q16531 whole entry partner): as the sequence (Q16531 whole entry partner) above

Row | SMILES | DC50 (Ikaros) [nM] | DC50 (Helios) [nM]
1 | O=C1CCC(N2Cc3cc(-c4ccc5ccccc5n4)ccc3C2=O)C(=O)N1 (stereo not shown) [Example 1, 3-(1-Oxo-5-(quinolin-2-yl)isoindolin-2-yl)piperidine-2,6-dione] | > 20000 | 34
2 | Nc1c(-c2ccc3c(c2)CN(C2CCC(=O)NC2=O)C3=O)ncc2ccccc12 (stereo not shown) [Example 2, 3-(5-(4-Aminoisoquinolin-3-yl)-1-oxoisoindolin-2-yl)piperidine-2,6-dione] | 13700 | 370
3 | O=C1CCC(N2Cc3cc(-c4ncnc5c4oc4ccccc45)ccc3C2=O)C(=O)N1 (stereo not shown) [Example 3, 3-(5-{8-oxa-3,5-diazatricyclo[7.4.0.0^2,7]trideca-1(9),2,4,6,10,12-hexaen-6-yl}-1-oxo-2,3-dihydro-1H-isoindol-2-yl)piperidine-2,6-dione] | > 20000 | 36
4 | Nc1nc(-c2ccc3c(c2)CN(C2CCC(=O)NC2=O)C3=O)cc2ccccc12 (stereo not shown) [Example 4, 3-[5-(1-aminoisoquinolin-3-yl)-1-oxo-2,3-dihydro-1H-isoindol-2-yl]piperidine-2,6-dione] | > 20000 | 6
5 | Nc1nc2ccccc2nc1-c1ccc2c(c1)CN(C1CCC(=O)NC1=O)C2=O (stereo not shown) [Example 5, 3-[5-(3-aminoquinoxalin-2-yl)-1-oxo-2,3-dihydro-1H-isoindol-2-yl]piperidine-2,6-dione] | > 20000 | > 20000
6 | O=C1CCC(N2Cc3cc(-c4cc5cc[nH]c5nn4)ccc3C2=O)C(=O)N1 (stereo not shown) [Example 6, 3-(1-oxo-5-{7H-pyrrolo[2,3-c]pyridazin-3-yl}-2,3-dihydro-1H-isoindol-2-yl)piperidine-2,6-dione] | > 20000 | 140
7 | O=C1CCC(N2Cc3cc(-c4cnc5ccccc5n4)ccc3C2=O)C(=O)N1 (stereo not shown) [Example 7, 3-[1-oxo-5-(quinoxalin-2-yl)-2,3-dihydro-1H-isoindol-2-yl]piperidine-2,6-dione] | > 20000 | 73
8 | Nc1cc(-c2ccc3c(c2)CN(C2CCC(=O)NC2=O)C3=O)nc2ccccc12 (stereo not shown) [Example 8, 3-[5-(4-aminoquinolin-2-yl)-1-oxo-2,3-dihydro-1H-isoindol-2-yl]piperidine-2,6-dione] | > 20000 | 25
9 | O=C1CCC(N2Cc3cc(-c4ncc5ccccc5n4)ccc3C2=O)C(=O)N1 (stereo not shown) [Example 9, 3-[1-oxo-5-(quinazolin-2-yl)-2,3-dihydro-1H-isoindol-2-yl]piperidine-2,6-dione] | > 20000 | 27
10 | CCC(C)Nc1nc2ccc(-c3ccc4c(c3)CN(C3CCC(=O)NC3=O)C4=O)nc2s1 (stereo not shown) [Example 10, 3-(5-{2-[(butan-2-yl)amino]-[1,3]thiazolo[5,4-b]pyridin-5-yl}-1-oxo-2,3-dihydro-1H-isoindol-2-yl)piperidine-2,6-dione] | > 20000 | 100
11 | O=C1CCC(N2Cc3cc(-c4ncc(F)c5[nH]ccc45)ccc3C2=O)C(=O)N1 (stereo not shown) [Example 11, 3-(5-{7-fluoro-1H-pyrrolo[3,2-c]pyridin-4-yl}-1-oxo-2,3-dihydro-1H-isoindol-2-yl)piperidine-2,6-dione] | 97 | 42
12 | COc1cc(-c2ccc3c(c2)CN(C2CCC(=O)NC2=O)C3=O)nc2ccccc12 (stereo not shown) [Example 12, 3-[5-(4-methoxyquinolin-2-yl)-1-oxo-2,3-dihydro-1H-isoindol-2-yl]piperidine-2,6-dione] | > 20000 | 38
13 | O=C1CCC(N2Cc3cc(-c4cc(-c5ccccc5)c5ccccc5n4)ccc3C2=O)C(=O)N1 (stereo not shown) [Example 13, 3-[1-oxo-5-(4-phenylquinolin-2-yl)-2,3-dihydro-1H-isoindol-2-yl]piperidine-2,6-dione] | > 20000 | 750
14 | O=C1CCC(N2Cc3cc(-c4cc(C(=O)NC5CC5)c5ccccc5n4)ccc3C2=O)C(=O)N1 (stereo not shown) [Example 14, N-cyclopropyl-2-[2-(2,6-dioxopiperidin-3-yl)-1-oxo-2,3-dihydro-1H-isoindol-5-yl]quinoline-4-carboxamide] | > 20000 | 400

Continued, values first:

Row | DC50 (Ikaros) [nM] | DC50 (Helios) [nM] | SMILES
15 | > 20000 | > 20000 | CCN(CC)c1nc(-c2ccc3c(c2)CN(C2CCC(=O)NC2=O)C3=O)nc2ccc(Cl)cc12 (stereo not shown) [Example 15, 3-{5-[6-chloro-4-(diethylamino)quinazolin-2-yl]-1-oxo-2,3-dihydro-1H-isoindol-2-yl}piperidine-2,6-dione]
16 | > 20000 | 30 | COc1cc2nc(-c3ccc4c(c3)CN(C3CCC(=O)NC3=O)C4=O)nc(N)c2cc1OC (stereo not shown) [Example 16, 3-[5-(4-amino-6,7-dimethoxyquinazolin-2-yl)-1-oxo-2,3-dihydro-1H-isoindol-2-yl]piperidine-2,6-dione]
17 | 96 | 14 | COc1ccc2c(-c3ccc4c(c3)CN(C3CCC(=O)NC3=O)C4=O)nccc2c1 (stereo not shown) [Example 17, 3-[5-(6-methoxyisoquinolin-1-yl)-1-oxo-2,3-dihydro-1H-isoindol-2-yl]piperidine-2,6-dione]
18 | > 20000 | 120 | O=C1CCC(N2Cc3cc(-c4cnc5cc(Cl)ccc5n4)ccc3C2=O)C(=O)N1 (stereo not shown) [Example 18, 3-[5-(6-chloroquinoxalin-2-yl)-1-oxo-2,3-dihydro-1H-isoindol-2-yl]piperidine-2,6-dione]
19 | 140 | 30 | O=C1CCC(N2Cc3cc(-c4nccc5ccc(F)cc45)ccc3C2=O)C(=O)N1 (stereo not shown) [Example 19, 3-[5-(7-fluoroisoquinolin-1-yl)-1-oxo-2,3-dihydro-1H-isoindol-2-yl]piperidine-2,6-dione]
20 | 34 | 20 | O=C1CCC(N2Cc3cc(-c4nccc5c(F)cccc45)ccc3C2=O)C(=O)N1 (stereo not shown) [Example 20, 3-[5-(5-fluoroisoquinolin-1-yl)-1-oxo-2,3-dihydro-1H-isoindol-2-yl]piperidine-2,6-dione]
21 | > 20000 | 37 | O=C1CCC(N2Cc3cc(-c4ccc5ncccc5n4)ccc3C2=O)C(=O)N1 (stereo not shown) [Example 21, 3-[5-(1,5-naphthyridin-2-yl)-1-oxo-2,3-dihydro-1H-isoindol-2-yl]piperidine-2,6-dione]
22 | > 20000 | 8 | Nc1nc(-c2ccc3c(c2)CN(C2CCC(=O)NC2=O)C3=O)nc2ccccc12 (stereo not shown) [Example 22, 3-[5-(4-aminoquinazolin-2-yl)-1-oxo-2,3-dihydro-1H-isoindol-2-yl]piperidine-2,6-dione]
23 | 130 | 6 | Cc1ccc2c(-c3ccc4c(c3)CN(C3CCC(=O)NC3=O)C4=O)nccc2c1 (stereo not shown) [Example 23, 3-[5-(6-methylisoquinolin-1-yl)-1-oxo-2,3-dihydro-1H-isoindol-2-yl]piperidine-2,6-dione]
24 | > 20000 | 9 | Cc1cc(-c2ccc3c(c2)CN(C2CCC(=O)NC2=O)C3=O)nc2ccccc12 (stereo not shown) [Example 24, 3-[5-(4-methylquinolin-2-yl)-1-oxo-2,3-dihydro-1H-isoindol-2-yl]piperidine-2,6-dione]
25 |  | 3 | CC(C)(C)Cn1ccc(=O)c2c(N)nc(-c3ccc4c(c3)CN(C3CCC(=O)NC3=O)C4=O)cc21 (stereo not shown) [Example 46, 3-{5-[5-Amino-1-(2,2-dimethylpropyl)-4-oxo-1,4-dihydro-1,6-naphthyridin-7-yl]-1-oxo-2,3-dihydro-1H-isoindol-2-yl}piperidine-2,6-dione]
26 |  | 24 | N#Cc1cc2ccccc2c(-c2ccc3c(c2)CN(C2CCC(=O)NC2=O)C3=O)n1 (stereo not shown) [Example 59, 1-[2-(2,6-dioxopiperidin-3-yl)-1-oxo-2,3-dihydro-1H-isoindol-5-yl]isoquinoline-3-carbonitrile]
27 |  | 7 | CNc1nc(-c2ccc3c(c2)CN(C2CCC(=O)NC2=O)C3=O)cc2c1ncn2C (stereo not shown) [Example 61, 3-{5-[1-methyl-4-(methylamino)-1H-imidazo[4,5-c]pyridin-6-yl]-1-oxo-2,3-dihydro-1H-isoindol-2-yl}piperidine-2,6-dione]
28 |  | 90 | O=C1CCC(N2Cc3cc(-c4nc5ccccc5nc4C4CC4)ccc3C2=O)C(=O)N1 (stereo not shown) [Example 97, 3-(5-(3-cyclopropylquinoxalin-2-yl)-1-oxoisoindolin-2-yl)piperidine-2,6-dione]
29 |  | 30 | CCCc1cc(-c2ccc3c(c2)CN(C2CCC(=O)NC2=O)C3=O)nc(N)c1C#N (stereo not shown) [Example 172, 2-amino-6-(2-(2,6-dioxopiperidin-3-yl)-1-oxoisoindolin-5-yl)-4-propylnicotinonitrile]
30 |  | 350 | N#Cc1c(C(F)F)cc(N)nc1-c1ccc2c(c1)CN(C1CCC(=O)NC1=O)C2=O (stereo not shown) [Example 174, 6-amino-4-(difluoromethyl)-2-(2-(2,6-dioxopiperidin-3-yl)-1-oxoisoindolin-5-yl) nicotinonitrile]
31 |  | 40 | N#Cc1c(C(F)(F)F)cc(-c2ccc3c(c2)CN(C2CCC(=O)NC2=O)C3=O)nc1N (stereo not shown) [Example 177, 2-amino-6-(2-(2,6-dioxopiperidin-3-yl)-1-oxoisoindolin-5-yl)-4-(trifluoromethyl)nicotine-nitrile]
